Test results as given in ChEMBL document CHEMBL1151982, “Natural products as tools for neuroscience: discovery and development of novel agents to treat drug abuse” (J Nat Prod, 2009).

Key:
Format in all cases: functional
[1] = molecular target: T1, Kappa-type opioid receptor (Homo sapiens, UniProt P41145); experiment: Agonist activity at kappa opioid receptor by [35S]GTPgammaS binding assay
[2] = molecular target: T1, Kappa-type opioid receptor; experiment: Agonist activity at kappa opioid receptor by [35S]GTPgammaS binding assay relative to (-)-U50,488H
[3] = molecular target: T1, Kappa-type opioid receptor; experiment: Antagonist activity at kappa opioid receptor by [35S]GTPgammaS binding assay

T1 sequence (P41145 whole entry): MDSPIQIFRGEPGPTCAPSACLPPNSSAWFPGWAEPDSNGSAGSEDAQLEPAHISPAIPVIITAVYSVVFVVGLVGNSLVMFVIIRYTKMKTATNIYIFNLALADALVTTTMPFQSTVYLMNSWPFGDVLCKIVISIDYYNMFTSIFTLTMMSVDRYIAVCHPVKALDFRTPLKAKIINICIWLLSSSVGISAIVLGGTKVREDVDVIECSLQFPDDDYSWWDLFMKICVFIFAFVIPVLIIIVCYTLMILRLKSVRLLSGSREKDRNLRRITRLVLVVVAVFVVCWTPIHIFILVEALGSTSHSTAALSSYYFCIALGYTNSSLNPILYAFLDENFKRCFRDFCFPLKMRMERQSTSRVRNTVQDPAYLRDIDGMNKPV

## COC(=O)[C@@H]1C[C@H](OC(C)=O)C(=O)[C@H]2[C@@]1(C)CC[C@H]1C(=O)O[C@H]([C@]3(O)[C@H](OC)O[C@H](OC)[C@H]3O)C[C@]21C [SALVINICIN A]
[1]
  EC50: 4.1 µM
[2]
  Emax: 80%

## COC(=O)[C@@H]1C[C@H](OC(C)=O)C(=O)[C@@H]2[C@@]3(C)C[C@@H]([C@]4(O)[C@@H](OC)O[C@@H](OC)[C@H]4O)CC(=O)[C@@H]3CC[C@]21C [SALVINICIN B]
[3]
  Ki: > 1.9 µM
